Experimental data reported in US10011578B2, “Compounds for stabilizing ryanodine receptors from aberrant levels of calcium release” (Rosalind Franklin University of Medicine and Science, priority 2013, dated 2018).
“Also recorded” adds a separate entry of the source.

Assays:
RyR [1] = assay: RyR-evoked calcium response in CA1 pyramidal neurons of hippocampal brain slices, acute incubation; format: cell-based, mouse; settings: 3×Tg-AD hippocampal slices, caffeine, 10 μM, 1 hour incubation
Method: 3×Tg-AD, TgCRND8, PS1/APP, and nontransgenic (NonTg) J29/C57BL6 control mice were bred in-house. Adult male and female mice 3-5 months old were used. Animals were cared for and used in accordance with protocols approved by the Rosalind Franklin University of Medicine and Science Animal Care and Use Committee. […] Whole-cell patch-clamp recordings were conducted at room temperature (23° C.) in continuously superfused aCSF (1.5-2.0 mL/min). […] Hippocampal CA1 pyramidal neurons were identified visually via infrared differential interference contrast (IR-DIC) optics, and electrophysiologically by their passive membrane properties and spike frequency accommodation. […] Minianalysis 6.0.7 (Synaptosoft, Fort Lee, N.J.) was used to detect and measure spontaneous excitatory postsynaptic potential (sEPSP) events with a minimal amplitude of 0.2 mV and minimal area of 3 mV*msec.
(§1) Voltage-gated Ca^2+ channel (VGCC) responses were elicited by depolarization via current injected through the patch pipette with the current level adjusted to elicit a train of 8-10 spikes.

RyR [2] = assay: Sub-chronic in vivo treatment of 3×Tg-AD mice, RyR-evoked calcium responses in CA1 neurons; design: species or system mouse; settings: 10 mg/kg ip, 4 weeks, 10 mM caffeine on acute slices
Method: 3×Tg-AD, TgCRND8, PS1/APP, and nontransgenic (NonTg) J29/C57BL6 control mice were bred in-house. Adult male and female mice 3-5 months old were used. Animals were cared for and used in accordance with protocols approved by the Rosalind Franklin University of Medicine and Science Animal Care and Use Committee. Hippocampal brain slices (300 μm) were prepared as previously described (Briggs et al., Neurobiol. Aging, 2013, 34:1632-1643). Mice were anesthetized with halothane, decapitated, and the brain removed into ice-cold sucrose cutting solution (200 mM sucrose, 1.5 mM KCl, 0.5 mM CaCl2, 4.0 mM MgCl2, 1.0 mM KH2PO4, 25 mM NaHCO3, 10 mM Na-ascorbate, and 20 mM dextrose, equilibrated with 95% O2/5% CO2). Horizontal hippocampal slices were prepared in a Camden Instruments vibratome with the chamber filled with ice-cold sucrose cutting solution and then transferred to and maintained in standard artificial cerebrospinal fluid (aCSF; 130 mM NaCl, 2.5 mM KCl, 2.0 mM CaCl2, 1.2 mM MgSO4, 1.25 mM NaH2PO4, 25 mM NaHCO3, and 10 mM dextrose [305-310 mOsm], equilibrated with 95% O2/5% CO2, pH 7.3-7.4) at 32° C. for at least 1 hour before use. […] Membrane potentials were obtained in current-clamp mode, acquired at 10 kHz with a Digidata 1322 A-D converter and Multiclamp 700B amplifier, and recorded and analyzed using pClamp 10.2 (Molecular Devices). […]

[3] = Sub-chronic in vivo treatment of 3×Tg-AD mice, heart weight and body weight; design: species or system mouse; settings: 10 mg/kg ip, 4 weeks
Method: Ca^2+ signaling and electrophysiological properties of CA1 pyramidal neurons were studied in hippocampal brain slices according to the protocols disclosed in Example 1. Briefly, 3×Tg-AD mice were treated with either saline (0.9%), CK013 or CK017 for four weeks (10 mg/kg; ip), and then acute hippocampal brain slice preparations were made for the purposes of performing whole cell patch clamp recordings and 2-photon calcium imaging in CA1 pyramidal neurons. The objective was to determine if our compounds could restore normal RyR-mediated calcium signaling in the AD mice and maintain normal membrane physiology.
Also, passive membrane properties such as resting membrane potential and membrane input resistance were not affected by these compounds. […] Additionally, there were no statistically significant differences in the ratio of heart weight:body weight among the treatment groups (Table 4; p>0.05), nor were there differences in absolute body weights or heart weights among the groups (data not shown; […]).

[4] = biological target: T1, RyR (RyR2-expressing N2A cell line) (Mus musculus, UniProt E9Q401); assay: RyR-evoked (caffeine) calcium response in N2A cells, 2-photon fura-2 imaging; format: cell-based; settings: for effect on caffeine-stimulated Ca^2+ release compared with dantrolene: 10 μM; for Ca^2+ Inc (Ca^2+ increase over baseline): caffeine-stimulated, compounds tested at 10 μM
T1 construct: tested using a RyR2-expressing N2A cell line; host or cells: N2a (Neuro-2a) cells
Method: All incubations and washes were at 37° C. with 10% CO2.
Glass cover slips with fura 2-AM-filled N2a cells were placed in a submersion chamber on the stage of an upright Olympus BX51 microscope which is coupled to a 2-photon laser imaging system. […] Ca^2+ imaging of individual cells was accomplished using a custom-made video-rate 2-photon imaging system. Laser excitation was provided by 100 fs pulses at 780 nm (80 MHz) from a Ti:sapphire laser (Mai Tai Broadband, Spectra-Physics). The laser beam was scanned by a resonant galvanometer (General Scanning Lumonics), allowing rapid (7.9 kHz) bidirectional scanning in the x-axis, and by a conventional linear galvanometer in the y-axis, to provide a full-frame scan rate of 30 frames/s. The laser beam was focused onto the cells through an Olympus 40× water-immersion objective (numerical aperture 0.8). Emitted fluorescence light was detected by a wide-field photomultiplier (Electron Tubes) to derive a video signal that was captured and analyzed by Video Savant 5.0 software (10 Industries). Further analysis of background-corrected images was performed using MetaMorph software. For clarity, results are expressed as inverse ratios so that increases in [Ca^2+ correspond to increasing ratios. The % change is calculated as [(F0/ΔF)−1]*100 where F0 is the average resting fluorescence at baseline and ΔF is the decrease of fluorescence reflecting Ca^2+ release. Differences between treatment groups were assessed using two-way ANOVA and Scheffe post hoc analysis for significance (p<0.05). Somatic Ca^2+ responses in all cells in the field of view were analyzed (n=8-20), with the nucleus region excluded. All compounds were tested in triplicate.

Log P (Table 1) = format: physicochemical
[5] = Brain/plasma ratio, brain levels in vivo; settings: for Kp: brain and plasma
[6] = Aqueous solubility at pH 7.4; format: physicochemical
[7] = test system: AD mouse models (3×Tg-AD and PS1/APP); assay: 4-week dantrolene treatment in AD mouse models (3×Tg-AD, APP/PS1): calcium, amyloid, synaptic integrity, RyR2 expression; format: in vivo
Method: 3×Tg-AD, TgCRND8, PS1/APP, and nontransgenic (NonTg) J29/C57BL6 control mice were bred in-house. Adult male and female mice 3-5 months old were used. Animals were cared for and used in accordance with protocols approved by the Rosalind Franklin University of Medicine and Science Animal Care and Use Committee. Hippocampal brain slices (300 μm) were prepared as previously described (Briggs et al., Neurobiol. Aging, 2013, 34:1632-1643). Mice were anesthetized with halothane, decapitated, and the brain removed into ice-cold sucrose cutting solution (200 mM sucrose, 1.5 mM KCl, 0.5 mM CaCl2, 4.0 mM MgCl2, 1.0 mM KH2PO4, 25 mM NaHCO3, 10 mM Na-ascorbate, and 20 mM dextrose, equilibrated with 95% O2/5% CO2). Horizontal hippocampal slices were prepared in a Camden Instruments vibratome with the chamber filled with ice-cold sucrose cutting solution and then transferred to and maintained in standard artificial cerebrospinal fluid (aCSF; 130 mM NaCl, 2.5 mM KCl, 2.0 mM CaCl2, 1.2 mM MgSO4, 1.25 mM NaH2PO4, 25 mM NaHCO3, and 10 mM dextrose [305-310 mOsm], equilibrated with 95% O2/5% CO2, pH 7.3-7.4) at 32° C. for at least 1 hour before use. Whole-cell patch-clamp recordings were conducted at room temperature (23° C.) in continuously superfused aCSF (1.5-2.0 mL/min). Patch pipettes (5-7 MO) were filled with intracellular solution (135 mM K-gluconate, 2.0 mM MgCl2, 4.0 mM Na2-ATP, 0.4 mM Na-GTP, 10 mM Na-phosphocreatine, 10 mM HEPES adjusted to pH 7.3 with KOH) plus 50 μM bis-fura-2 hexapotassium (Life Technologies) as fluorescent Ca^2+ sensor. Hippocampal CA1 pyramidal neurons were identified visually via infrared differential interference contrast (IR-DIC) optics, and electrophysiologically by their passive membrane properties and spike frequency accommodation. Membrane potentials were obtained in current-clamp mode, acquired at 10 kHz with a Digidata 1322 A-D converter and Multiclamp 700B amplifier, and recorded and analyzed using pClamp 10.2 (Molecular Devices). Minianalysis 6.0.7 (Synaptosoft, Fort Lee, N.J.) was used to detect and measure spontaneous excitatory postsynaptic potential (sEPSP) events with a minimal amplitude of 0.2 mV and minimal area of 3 mV*msec. See Chakroborty et al., 2012, J. Neurosci. 32(24):8341-53 for further experimental details.
as §1

TG-CRND8 AD mice = assay: Chronic dantrolene in TgCRND8 AD mice, CP13 phospho-tau immunostaining; format: in vivo, mouse; settings: 10 mg/kg IP, 4 weeks
Method: Mice are deeply anesthetized with urethane, the thoracic cavity opened, and cannula inserted into the left ventricle of the heart, and a small hole cut into the right atrium. Ice cold saline (3 mL) and then 4% paraformaldehyde (5 mL), or 4% paraformaldehyde/1% glutaraldehyde are perfused through the circulatory system. Following this, the mice are decapitated with sharp scissors and the brain prepared for staining or microscopy.

[8] = chronic oral treatment (10+ months); cited from earlier work

T1 sequence (E9Q401 whole entry): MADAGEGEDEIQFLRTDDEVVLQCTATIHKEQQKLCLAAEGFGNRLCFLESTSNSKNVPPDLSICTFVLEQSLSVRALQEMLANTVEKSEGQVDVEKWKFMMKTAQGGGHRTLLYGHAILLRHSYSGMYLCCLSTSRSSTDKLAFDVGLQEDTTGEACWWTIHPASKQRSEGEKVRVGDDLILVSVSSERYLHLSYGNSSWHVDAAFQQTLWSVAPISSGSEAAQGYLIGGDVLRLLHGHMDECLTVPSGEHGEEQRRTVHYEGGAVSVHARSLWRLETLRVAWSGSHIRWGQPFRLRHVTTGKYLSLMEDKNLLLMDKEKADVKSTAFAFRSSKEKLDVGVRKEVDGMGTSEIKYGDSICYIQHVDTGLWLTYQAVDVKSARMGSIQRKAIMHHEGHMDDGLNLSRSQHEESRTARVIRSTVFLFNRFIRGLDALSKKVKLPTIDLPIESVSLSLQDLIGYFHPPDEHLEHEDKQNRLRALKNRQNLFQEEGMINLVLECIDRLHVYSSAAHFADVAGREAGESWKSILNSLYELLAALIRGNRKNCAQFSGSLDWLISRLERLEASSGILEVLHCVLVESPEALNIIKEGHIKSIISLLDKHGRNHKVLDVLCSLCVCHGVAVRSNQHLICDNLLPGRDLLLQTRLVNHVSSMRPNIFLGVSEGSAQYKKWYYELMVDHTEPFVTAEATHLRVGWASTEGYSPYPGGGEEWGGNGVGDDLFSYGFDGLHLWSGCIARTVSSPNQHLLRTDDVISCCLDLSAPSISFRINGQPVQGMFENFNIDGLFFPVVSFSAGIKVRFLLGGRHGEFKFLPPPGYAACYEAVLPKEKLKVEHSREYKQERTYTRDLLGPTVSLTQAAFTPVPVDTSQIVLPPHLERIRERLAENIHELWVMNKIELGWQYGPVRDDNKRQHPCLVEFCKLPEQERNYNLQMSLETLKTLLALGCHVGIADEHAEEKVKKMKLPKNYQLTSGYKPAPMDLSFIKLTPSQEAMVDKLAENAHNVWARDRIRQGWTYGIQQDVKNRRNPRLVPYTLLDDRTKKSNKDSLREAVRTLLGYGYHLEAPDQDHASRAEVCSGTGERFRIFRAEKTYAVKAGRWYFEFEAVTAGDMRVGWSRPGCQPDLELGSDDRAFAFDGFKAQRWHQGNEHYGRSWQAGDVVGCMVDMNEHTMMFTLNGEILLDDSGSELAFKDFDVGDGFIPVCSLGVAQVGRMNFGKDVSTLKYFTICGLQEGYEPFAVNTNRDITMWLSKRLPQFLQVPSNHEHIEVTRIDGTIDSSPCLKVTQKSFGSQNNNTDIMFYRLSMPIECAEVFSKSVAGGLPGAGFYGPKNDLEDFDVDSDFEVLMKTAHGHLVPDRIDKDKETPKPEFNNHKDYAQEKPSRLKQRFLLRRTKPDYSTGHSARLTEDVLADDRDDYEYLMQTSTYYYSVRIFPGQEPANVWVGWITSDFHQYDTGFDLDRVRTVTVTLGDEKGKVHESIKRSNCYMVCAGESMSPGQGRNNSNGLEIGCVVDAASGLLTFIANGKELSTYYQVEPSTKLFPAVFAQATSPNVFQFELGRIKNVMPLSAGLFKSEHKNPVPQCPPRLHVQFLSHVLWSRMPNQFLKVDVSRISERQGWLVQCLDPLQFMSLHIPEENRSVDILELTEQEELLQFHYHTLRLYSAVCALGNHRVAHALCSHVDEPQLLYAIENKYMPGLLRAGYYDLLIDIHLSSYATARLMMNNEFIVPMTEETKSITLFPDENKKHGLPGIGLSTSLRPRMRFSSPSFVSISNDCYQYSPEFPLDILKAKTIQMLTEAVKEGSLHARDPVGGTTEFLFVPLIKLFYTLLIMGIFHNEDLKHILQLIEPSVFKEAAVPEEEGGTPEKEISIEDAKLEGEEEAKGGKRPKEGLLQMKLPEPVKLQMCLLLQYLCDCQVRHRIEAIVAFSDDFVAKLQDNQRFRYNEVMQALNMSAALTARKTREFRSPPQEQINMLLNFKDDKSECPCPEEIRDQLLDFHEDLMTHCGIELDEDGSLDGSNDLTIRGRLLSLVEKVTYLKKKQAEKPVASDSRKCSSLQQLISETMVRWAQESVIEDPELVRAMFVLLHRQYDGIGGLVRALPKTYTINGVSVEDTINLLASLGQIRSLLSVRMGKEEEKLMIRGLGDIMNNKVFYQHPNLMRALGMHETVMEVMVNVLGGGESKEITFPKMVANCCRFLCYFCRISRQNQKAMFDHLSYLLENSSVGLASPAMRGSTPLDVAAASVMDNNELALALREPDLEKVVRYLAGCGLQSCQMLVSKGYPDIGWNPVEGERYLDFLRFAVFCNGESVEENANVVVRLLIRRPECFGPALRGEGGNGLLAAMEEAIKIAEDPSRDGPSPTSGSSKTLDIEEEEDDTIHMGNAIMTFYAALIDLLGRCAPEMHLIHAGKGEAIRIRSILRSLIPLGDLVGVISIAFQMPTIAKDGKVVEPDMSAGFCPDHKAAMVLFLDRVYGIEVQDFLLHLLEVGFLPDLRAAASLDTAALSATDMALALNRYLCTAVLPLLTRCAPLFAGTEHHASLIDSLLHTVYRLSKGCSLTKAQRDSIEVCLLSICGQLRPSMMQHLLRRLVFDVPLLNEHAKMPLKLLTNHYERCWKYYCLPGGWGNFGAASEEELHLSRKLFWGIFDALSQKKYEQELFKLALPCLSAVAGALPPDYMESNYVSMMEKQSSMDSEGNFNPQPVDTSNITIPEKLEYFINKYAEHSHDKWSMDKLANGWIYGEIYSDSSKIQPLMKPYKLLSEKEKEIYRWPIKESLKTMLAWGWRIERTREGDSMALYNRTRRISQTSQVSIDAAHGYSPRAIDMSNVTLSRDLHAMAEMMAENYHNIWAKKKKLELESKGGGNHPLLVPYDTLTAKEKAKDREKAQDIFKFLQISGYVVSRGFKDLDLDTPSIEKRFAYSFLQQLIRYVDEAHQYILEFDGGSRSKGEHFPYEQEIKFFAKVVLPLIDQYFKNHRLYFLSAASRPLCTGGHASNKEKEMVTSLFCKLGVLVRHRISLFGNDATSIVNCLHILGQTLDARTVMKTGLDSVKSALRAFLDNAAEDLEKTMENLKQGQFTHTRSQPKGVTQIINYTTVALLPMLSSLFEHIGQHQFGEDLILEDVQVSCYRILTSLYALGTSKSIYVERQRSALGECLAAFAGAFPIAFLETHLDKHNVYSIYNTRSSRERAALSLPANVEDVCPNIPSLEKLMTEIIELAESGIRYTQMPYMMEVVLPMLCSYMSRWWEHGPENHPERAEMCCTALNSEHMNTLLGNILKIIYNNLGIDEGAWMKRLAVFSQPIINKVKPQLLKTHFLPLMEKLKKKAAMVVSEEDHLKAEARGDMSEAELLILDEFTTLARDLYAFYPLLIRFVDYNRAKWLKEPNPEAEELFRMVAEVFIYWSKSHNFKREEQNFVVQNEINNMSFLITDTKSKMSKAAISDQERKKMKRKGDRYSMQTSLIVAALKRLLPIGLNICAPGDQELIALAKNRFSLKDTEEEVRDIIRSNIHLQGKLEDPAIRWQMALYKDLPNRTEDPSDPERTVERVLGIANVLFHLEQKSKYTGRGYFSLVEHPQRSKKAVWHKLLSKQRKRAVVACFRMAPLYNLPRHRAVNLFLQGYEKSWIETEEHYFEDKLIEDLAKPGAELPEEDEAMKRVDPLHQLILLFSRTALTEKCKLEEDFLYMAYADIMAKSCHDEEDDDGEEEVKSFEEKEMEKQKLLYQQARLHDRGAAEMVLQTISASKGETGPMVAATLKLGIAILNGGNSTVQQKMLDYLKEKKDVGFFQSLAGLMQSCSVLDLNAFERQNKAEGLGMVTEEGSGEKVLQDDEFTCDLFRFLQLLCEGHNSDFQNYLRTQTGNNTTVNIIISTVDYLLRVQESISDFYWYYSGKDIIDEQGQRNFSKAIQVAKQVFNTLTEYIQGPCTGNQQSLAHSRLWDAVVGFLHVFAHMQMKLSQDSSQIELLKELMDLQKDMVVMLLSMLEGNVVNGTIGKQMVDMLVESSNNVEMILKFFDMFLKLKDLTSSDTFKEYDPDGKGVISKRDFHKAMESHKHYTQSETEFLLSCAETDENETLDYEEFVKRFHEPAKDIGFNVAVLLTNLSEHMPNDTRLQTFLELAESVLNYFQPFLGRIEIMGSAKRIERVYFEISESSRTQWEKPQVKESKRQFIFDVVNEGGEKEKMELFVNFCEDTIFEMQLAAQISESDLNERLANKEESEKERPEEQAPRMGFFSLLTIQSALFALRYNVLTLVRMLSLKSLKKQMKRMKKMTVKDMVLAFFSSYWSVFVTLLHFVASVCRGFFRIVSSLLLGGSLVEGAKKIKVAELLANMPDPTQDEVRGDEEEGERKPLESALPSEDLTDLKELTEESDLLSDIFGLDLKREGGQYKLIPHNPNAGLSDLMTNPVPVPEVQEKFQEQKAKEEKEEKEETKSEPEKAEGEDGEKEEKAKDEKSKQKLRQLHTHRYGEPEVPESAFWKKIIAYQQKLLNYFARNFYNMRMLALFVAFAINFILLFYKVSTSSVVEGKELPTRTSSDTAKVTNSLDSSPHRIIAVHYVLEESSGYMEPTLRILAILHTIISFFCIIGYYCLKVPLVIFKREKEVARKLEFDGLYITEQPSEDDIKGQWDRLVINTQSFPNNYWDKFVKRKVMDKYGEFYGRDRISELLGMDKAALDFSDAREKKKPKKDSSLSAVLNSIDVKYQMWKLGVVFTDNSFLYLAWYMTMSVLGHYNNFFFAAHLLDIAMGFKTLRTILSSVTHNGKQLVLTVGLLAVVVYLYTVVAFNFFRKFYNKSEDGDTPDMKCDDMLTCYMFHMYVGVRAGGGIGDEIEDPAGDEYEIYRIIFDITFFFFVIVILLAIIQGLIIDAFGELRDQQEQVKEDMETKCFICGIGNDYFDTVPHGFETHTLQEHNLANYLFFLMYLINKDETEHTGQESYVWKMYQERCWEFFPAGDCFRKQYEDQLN

SMILES	Ca^2+ Inc (Ca^2+ increase over baseline) [4] [fold]	logP (Log P (Table 1))	effect on caffeine-stimulated Ca^2+ release compared with dantrolene [4]	further results
O=C(Cc1ccccc1)N/N=C/c1ccc(-c2ccccc2)o1 [CK013]	–	–	–	RyR-evoked calcium response in AD neurons (RyR [1]): normalized aberrant RyR-evoked calcium signals; also recorded: significantly reduced to within physiological levels; RyR-evoked calcium responses after chronic treatment (RyR [2]): not different from the NonTg control responses; also recorded: not different from the control NonTg saline treated mice; Ratio of heart weight:body weight [3]: 4.06 × 10^−3
O=C(N/N=C/c1ccc(-c2ccc(Cl)cc2)o1)N/N=C/c1ccc(-c2ccc(Cl)cc2)o1 [CK017]	–	–	–	RyR-evoked calcium response in AD neurons (RyR [1]): normalized aberrant RyR-evoked calcium signals; also recorded: significantly reduced to within physiological levels; RyR-evoked calcium responses after chronic treatment (RyR [2]): not different from the NonTg control responses; also recorded: not different from the control NonTg saline treated mice; Ratio of heart weight:body weight [3]: 3.6 × 10^−3
O=C1CN(/N=C/c2ccc(-c3ccccc3)o2)C(=O)N1 [RD05]	1.43	1.8	block calcium release to a greater degree than dantrolene; also recorded: comparable or superior effects on Ca^2+ release	CNS penetration compared with dantrolene [5]: markedly improved; brain levels relative to those of dantrolene [5]: > 50 times; Kp [5]: 0.5; solubility compared with dantrolene [6]: markedly improved solubility
O=C(N/N=C/c1ccc(-c2cccc([N+](=O)[O-])c2)o1)c1ccccn1 [RD11]	1.38	3	block calcium release to a greater degree than dantrolene	–
O=C(N/N=C/c1ccc(-c2ccc([N+](=O)[O-])cc2)o1)c1ccc(Cl)cc1Cl [RD83]	>6	5.5	–	–
O=C(N/N=C/c1ccc(-c2cccc(Cl)c2Cl)o1)c1ccccn1 [RD91]	>6	4.4	–	–
O=C1CN(/N=C/c2ccc(-c3ccc([N+](=O)[O-])cc3)o2)C(O)=N1 [dantrolene, 1-{[5-(4-nitrophenyl)-2-furyl]methylideneamino} imidazolidine-2,4-dione]	1.96	–	–	reduction of the evoked RyR-calcium response ([4]; caffeine (10 mM), pre-incubated 30 minutes): over 60%; soluble and insoluble Aβ deposition ([7]; 3×Tg-AD and PS1/APP, 4-week treatment, 5-10 mg/kg): significantly reduced; synaptic integrity (synaptophysin/PSD-95 colocalization), synaptic transmission properties ([7]; AD mice, 4-week treatment): restored synaptic transmission properties and synaptic integrity; ER calcium responses (soma, dendrites, dendritic spines) ([7]; AD mice, 4-week treatment, 5-10 mg/kg): returned the exaggerated ER-Ca^2+ release in dendritic spines to NonTg levels; also recorded: normalizes this calcium response; RyR2 mRNA expression levels, hippocampus ([7]; AD-Tg mice, 10 mg/kg, 4 weeks): normalized expression levels of RyR2; reduction of beta amyloid levels (4G8 immunostaining) ([7]; hippocampus and cortex, 4-week treatment): 45%; phospho-tau (CP13) staining, dentate gyrus (TG-CRND8 AD mice): reduces phosphorylated tau; also recorded: significantly reduced; amyloid pathology [8]: increase amyloid pathology

Now from value to compound, other results behind:

Ca^2+ Inc (Ca^2+ increase over baseline) [4] [fold]	logP (Log P (Table 1))	SMILES	effect on caffeine-stimulated Ca^2+ release compared with dantrolene [4]	further results
1.06	2.5	CC(=O)N/N=C/c1ccc(-c2cccc([N+](=O)[O-])c2)o1 [RD09]	block calcium release to a greater degree than dantrolene	–
4.25	3.4	CN1CCN(C(=O)N/N=C/c2ccc(-c3ccc([N+](=O)[O-])cc3Cl)o2)CC1 [RD10]	–	–
2.38	3.2	Cc1c(-c2ccc(/C=N/NC(N)=O)o2)ccc([N+](=O)[O-])c1C [RD14]	comparable to dantrolene's effect; also recorded: comparable or superior effects on Ca^2+ release	CNS penetration compared with dantrolene [5]: markedly improved; Kp [5]: 1.6; solubility compared with dantrolene [6]: markedly improved solubility
>6	5.1	O=C(N/N=C/c1ccc(-c2ccc([N+](=O)[O-])cc2Cl)o1)Nc1ccccc1 [RD54]	–	–
>6	5	O=C(N/N=C/c1ccc(-c2ccc(Br)cc2)o1)c1ccc([N+](=O)[O-])cc1 [RD77]	–	–
